These results are taken from patent publication US9040717B2, “Pyrazole-amide compounds and pharmaceutical use thereof” (JAPAN TOBACCO INC., priority 2013, dated 2015).

Series [1] addresses hERG current in hERG-transfected HEK293 cells (Homo sapiens (Human), UniProt Q12809). As to the kind of experiment: hERG whole cell patch clamp test. Format: cell-based. The settings on record: for IC50: whole cell patch clamp. How it is done: Using human ether-a-go-go related gene (hERG)-transfected HEK293 cells (Cytomyx Limited), an influence on hERG current was examined according to the whole cell patch clamp technique. The hERG-transfected HEK293 cells were passaged using a CO2 incubator (BNA-111, TABAI ESPEC CORP.) under the set conditions of 37° C., 5% CO2, saturated humidity. Culture containers used were Collagen Type I Coated 75 cm^2 flask (4123-010, AGC TECHNO GLASS CO., Ltd.) and Collagen Type I Coated 35 mm culture dish (4000-010, AGC TECHNO GLASS CO., Ltd.). The culture medium used was E-MEM (Eagle Minimum Essential Medium (Earle's Salts, Nikken biomedical laboratory) added with 10% FCS (Fetal calf serum, BioWest, L.L.C.) and 1% MEM Non-Essential Amino Acids Solution (NEAA, Invitrogen Corporation). Geneticin for the selection of hERG gene expressing cells was added thereto to a concentration of 400 μg/mL. As the cells for the measurement, 3×10^4 hERG-transfected HEK293 cells were plated on a 35 mm culture dish 4 to 7 days before measurement of the hERG current. The culture dish produced for the measurement contained the above-mentioned culture medium without geneticin (Invitrogen Corporation).
The highest evaluation concentration of each compound was determined from the highest concentration at which precipitation was not found in the standard extracellular fluid (NaCl: 140 mmol/L, KCl: 2.5 mmol/L, MgCl2:2 mmol/L, CaCl2: 2 mmol/L, HEPES: 10 mmol/L, glucose: 10 mmol/L (adjusted to pH 7.4 with Tris-base)). As the application method, each solution to be applied was ejected from a Y-tube having a tip diameter of about 0.25 mm, which was adjacent (about 2 mm) to the cells, and applied to the cells. The ejection rate was about 0.4 mL/min.
The experiment was performed at room temperature under a phase contrast microscope. The 35 mm culture dish plated with the cells was set on a measurement apparatus, and the standard extracellular fluid was continuously applied to the cells from the Y-tube. A glass electrode for the measurement was filled with an intracellular fluid (Potassium Gluconate: 130 mmol/L, KCl: 20 mmol/L, MgCl2: 1 mmol/L, ATP-Mg: 5 mmol/L, EGTA: 3.5 mmol/L, HEPES: 10 mmol/L (adjusted to pH 7.2 with Tris-base)). A conventional whole cell patch clamp method was applied to the cells, and the maintenance electric potential was set to −80 mV. Under a fixed electric potential, the whole cell current was amplified by an amplifier for patch clamp (AXOPATCH-200B, Axon Instruments, Inc.), and the data was loaded into a computer (IMC-P642400, Intermedical Co., Ltd.) using a data acquisition analysis software (pCLAMP 9.2, Axon Instruments, Inc.).
The measurement of the hERG current was performed in the following two steps. In both cases, the hERG current was initiated by giving a command potential (maintenance electric potential −80 mV, prepulse +20 mV, 1.5 sec, test-pulse −50 mV, 1.5 sec).
Step (1): The above-mentioned command potential was given at 0.1 Hz for 2 min.
Step (2): The above-mentioned command potential was subjected to P/3 subtraction of pCLAMP 9.2 to remove leak current. This was repeated three times and an average thereof was taken as hERG current.
Subsequent to step (1), Step (2) was performed (about 3 min), and the maximum tail current obtained by applying a test-pulse to the hERG current obtained by the method of step (2) was taken as hERG current value. Hereafter, the operations of (1) and (2) were alternately repeated until completion of the experiment and the hERG current value was measured.
Stable hERG current value was recorded three times (about 10 min), and the standard extracellular fluid was instantaneously exchanged with each application fluid. The hERG current value was measured three times (about 10 min) in the same manner during perfusion of the application fluid, and the current value obtained by the 3rd measurement was taken as hERG current value after perfusion of the application fluid. […]
A general note: The hERG channel carries a current that helps repolarise heart muscle cells.

For series [2], the system named is adipose tissue PDH activity. As to the kind of experiment: Ex vivo PDH activation assay, adipose tissue. Format: in vivo, Sprague-Dawley rats. The procedure:
The action of test compound on tissue PDH activity was evaluated. NADH production was detected via p-iodonitrotetrazolium violet (INT)-coupled system to measure PDH activity.
Normal male Sprague-Dawley rats were randomly allocated to the vehicle group and the test compound groups. The vehicle (0.5% aqueous methylcellulose solution, 5 mL/kg) or the test compound was orally administered to the rats. At 5 or 20 hr after administration, the rats were anesthetized with an intraperitoneal injection of sodium pentobarbital (60 mg/kg), and liver slices and epididymal adipose tissues were collected.
To the adipose tissues were rapidly added 3 volumes of an ice-cold homogenization buffer, and the mixtures were homogenized using a Polytron homogenizer. The homogenates were centrifuged at 600×g, 4° C. for 10 min to obtain the supernatant. The supernatants were centrifuged at 16,000×g, 4° C. for 10 min to collect the precipitates. The precipitates were washed by resuspension in the homogenization buffer (1 mL) and centrifuged in the same manner. The precipitates were frozen with liquid nitrogen and stored at −80° C. as the adipose tissue mitochondrial fraction.
The mitochondrial fractions were thawed and suspended with the sample buffer (0.25 mol/L sucrose, 20 mmol/L tris(hydroxymethyl)aminomethane hydrochloride (pH 7.5), 50 mmol/L potassium chloride, and 1 mL/L 4-(1,1,3,3-tetramethylbutyl)phenyl-polyethylene glycol (Triton X-100)). Active PDH activity (PDHa activity) and total PDH activity (PDHt activity) were measured to evaluate the PDH activity. For the measurement of the PDHt activity, equal amounts of the mitochondrial suspension and the activation buffer (0.25 mol/L sucrose, 20 mmol/L tris(hydroxymethyl)aminomethane hydrochloride (pH 7.5), 50 mmol/L potassium chloride, 1 mL/L Triton X-100, 4 mmol/L calcium chloride, 40 mmol/L magnesium chloride, 10 mmol/L sodium dichloroacetate) were mixed, and the mixtures were incubated at 37° C. for 10 min. Forty microliters of the mitochondrial suspensions diluted with a sample buffer were added to a 96-well microplate for activity measurement and blank measurement. Then 180 μL of the reaction mixture (0.056 mmol/L potassium phosphate buffer (pH 7.5), 5.6 mmol/L DL-carnitine, 2.8 mmol/L NAD, 0.22 mmol/L thiamin pyrophosphate, 0.11 mmol/L Coenzyme A, 1.1 mL/L Triton X-100, 1.1 mmol/L magnesium chloride, 1.1 g/L bovine serum albumin, 0.67 mmol/L INT, 7.2 μmol/L phenazine methosulfate, 28 mmol/L sodium oxamate) was added to each well, and then 20 μL of 50 mmol/L sodium pyruvate for activity measurement or water for blank measurement were added. The mixtures were incubated at room temperature under shading. The absorbances at 500-750 nm, which were attributable to reduction of INT, the final electron acceptor, were measured using a microplate reader over time and the changes in the absorbance were calculated. The PDH activity was calculated by subtraction of the change in absorbance of the blank well from that of the activity measurement well. The percentage of the PDHa activity to the PDHt activity was calculated and taken as an index of the PDH activation.

Setting [3] is: Table 2, 5 hr after oral 3 mg/kg, non-fasting SD rats, vehicle 31 ± 10, mean ± S.D. (n = 3).
Where [4] appears, read: Table 2, 20 hr after oral 3 mg/kg, non-fasting SD rats, vehicle 31 ± 10, mean ± S.D. (n = 3).

Molecules are shown by their SMILES.

Sequence of hERG current in hERG-transfected HEK293 cells (Q12809 whole entry): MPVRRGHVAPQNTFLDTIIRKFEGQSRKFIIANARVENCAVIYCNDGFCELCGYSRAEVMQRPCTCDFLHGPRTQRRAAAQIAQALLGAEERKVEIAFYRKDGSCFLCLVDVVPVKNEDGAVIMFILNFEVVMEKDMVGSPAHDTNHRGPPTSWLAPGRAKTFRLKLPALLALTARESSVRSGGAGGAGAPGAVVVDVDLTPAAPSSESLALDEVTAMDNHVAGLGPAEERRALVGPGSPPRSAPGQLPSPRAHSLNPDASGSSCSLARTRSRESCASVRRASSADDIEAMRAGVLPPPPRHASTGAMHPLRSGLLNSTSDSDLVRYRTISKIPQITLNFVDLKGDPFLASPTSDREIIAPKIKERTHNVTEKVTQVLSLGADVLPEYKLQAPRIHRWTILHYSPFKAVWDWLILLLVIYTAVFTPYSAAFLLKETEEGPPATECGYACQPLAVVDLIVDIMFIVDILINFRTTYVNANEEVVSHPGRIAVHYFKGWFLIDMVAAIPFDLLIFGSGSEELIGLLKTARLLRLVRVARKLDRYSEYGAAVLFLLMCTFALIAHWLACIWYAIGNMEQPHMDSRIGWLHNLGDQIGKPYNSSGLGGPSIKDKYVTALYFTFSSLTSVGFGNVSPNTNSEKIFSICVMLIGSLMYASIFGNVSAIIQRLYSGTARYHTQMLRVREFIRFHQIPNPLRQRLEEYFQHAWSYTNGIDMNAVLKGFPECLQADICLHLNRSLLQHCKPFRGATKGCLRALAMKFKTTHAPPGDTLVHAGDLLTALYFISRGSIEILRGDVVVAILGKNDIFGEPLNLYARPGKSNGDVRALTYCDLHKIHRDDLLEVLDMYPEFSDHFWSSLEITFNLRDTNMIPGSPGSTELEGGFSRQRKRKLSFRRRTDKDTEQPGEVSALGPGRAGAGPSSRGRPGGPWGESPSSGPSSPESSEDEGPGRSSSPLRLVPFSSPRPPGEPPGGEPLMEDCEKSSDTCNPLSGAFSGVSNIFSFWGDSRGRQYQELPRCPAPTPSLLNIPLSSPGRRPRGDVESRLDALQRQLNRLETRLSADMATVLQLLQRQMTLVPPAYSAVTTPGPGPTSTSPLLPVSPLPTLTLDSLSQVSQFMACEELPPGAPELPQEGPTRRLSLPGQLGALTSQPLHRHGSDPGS

`Cn1cc(-c2cc(OCC(C)(C)O)cc3c2-c2ccccc2[C@]3(O)C(F)(F)F)cn1` [Compound (B), (9R)-2-(2-Hydroxy-2-methylpropoxy)-4-(1-methyl-1H-pyrazol-4-yl)-9-(trifluoromethyl)-9H-fluoren-9-ol]: the “hERG current Inhibition rate (%)” value in series [1] (1 μmol/L) is 17.4%; in series [1] (10 μmol/L), 72.9%. For the same molecule, the “PDHa activity (% of PDHt activity)” value in series [2] (setting [3]) was 59 ± 5 % of PDHt activity; in series [2] (setting [4]), 30 ± 4 % of PDHt activity.

Consider `NC(=O)Cn1cc(-c2cc(OCCC34CC5CC(CC(O)(C5)C3)C4)cc3c2-c2ccccc2[C@]3(O)C(F)(F)F)cn1` [Compound (A), 2-(4-{(9R)-9-Hydroxy-2-[2-(3-hydroxyadamantan-1-yl)ethoxy]-9-(trifluoromethyl)-9H-fluoren-4-yl}-1H-pyrazol-1-yl)acetamide], for which the “hERG current Inhibition rate (%)” value in series [1] (10 μmol/L) came out at 11.8%. Further, the “PDHa activity (% of PDHt activity)” value in series [2] (setting [3]) is recorded as 32 ± 14 % of PDHt activity; in series [2] (setting [4]), 24 ± 7 % of PDHt activity.

Usually IC50 stands for the concentration needed to halve the response being measured. Lower therefore signals inhibition by little substance. `CC(C)(O)CCOc1cc(-c2cnn(C(C)(C)C(N)=O)c2)c2c(c1)[C@@](O)(C(F)(F)F)c1ccccc1-2` [Compound (2), 2-{4-[(9R)-9-hydroxy-2-(3-hydroxy-3-methylbutyloxy)-9-(trifluoromethyl)-9H-fluoren-4-yl]-1H-pyrazol-1-yl}-2-methylpropanamide]: the “hERG current Inhibition rate (%)” value in series [1] (30 μmol/L) is recorded as 24.4%. The molecule also showed an IC50 in series [1] of over 30 µM. The “PDHa activity (% of PDHt activity)” value is 88 ± 11 % of PDHt activity in series [2] (Table 3, 5 hr after oral 3 mg/kg, SD rats, vehicle 42 ± 4, mean ± S.D. (n = 3)) and 61 ± 15 % of PDHt activity in series [2] (Table 3, 20 hr after oral 3 mg/kg, SD rats, vehicle 42 ± 4, mean ± S.D. (n = 3)).

Consider `CC(C)(O)CCCOc1cc(-c2cnn(C(C)(C)C(N)=O)c2)c2c(c1)[C@@](O)(C(F)(F)F)c1ccccc1-2` [Compound (3), 2-{4-[(9R)-9-hydroxy-2-(4-hydroxy-4-methylpentyloxy)-9-(trifluoromethyl)-9H-fluoren-4-yl]-1H-pyrazol-1-yl}-2-methylpropanamide], for which the “hERG current Inhibition rate (%)” value in series [1] (30 μmol/L) was found to be 27.3%. The molecule also returned an IC50 in series [1] of over 30 µM. Further, the “PDHa activity (% of PDHt activity)” value is 70 ± 9 % of PDHt activity in series [2] (setting [3]) and 42 ± 3 % of PDHt activity in series [2] (setting [4]).
